Reference: patent publication US11186544B2 (BRISTOL-MYERS SQUIBB COMPANY, priority 2017, dated 2021)
Where two headings read alike, the source gives them in different places.

Experiments:
[1] = molecular target: human FPR2 (Homo sapiens (Human), UniProt P25090); experiment: FPR2 cyclic adenosine monophosphate (cAMP) assay; assay type: cell-based; details: CHO cells overexpressing human FPR2
Procedure: FPR2 and FPR1 Cyclic Adenosine Monophosphate (cAMP) Assays. A mixture of forskolin (5 μM final for FPR2 or 10 μM final for FPR1) and IBMX (200 μM final) were added to 384-well Proxiplates (Perkin-Elmer) pre-dotted with test compounds in DMSO (1% final) at final concentrations in the range of 0.020 nM to 100 μM. Chinese Hamster Ovary cells (CHO) overexpressing human FPR1 or human FPR2 receptors were cultured in F-12 (Ham's) medium supplemented with 10% qualified FBS, 250 μg/ml zeocin and 300 μg/ml hygromycin (Life Technologies). Reactions were initiated by adding 2,000 human FPR2 cells per well or 4,000 human FPR1 cells per well in Dulbecco's PBS (with calcium and magnesium) (Life Technologies) supplemented with 0.1% BSA (Perkin-Elmer). The reaction mixtures were incubated for 30 min at room temperature. The level of intracellular cAMP was determined using the HTRF HiRange cAMP assay reagent kit (Cisbio) according to manufacturer's instruction. Solutions of cryptate conjugated anti-cAMP and d2 flurorophore-labelled cAMP were made in a supplied lysis buffer separately. Upon completion of the reaction, the cells were lysed with equal volume of the d2-cAMP solution and anti-cAMP solution. […] The potency and activity of a compound to inhibit cAMP production was then determined by fitting to a 4-parametric logistic equation from a plot of cAMP level versus compound concentrations.

[2] = molecular target: human FPR1 (Homo sapiens (Human), UniProt P21462); experiment: FPR1 cyclic adenosine monophosphate (cAMP) assay; assay type: cell-based; details: CHO cells overexpressing human FPR1; inhibition of forskolin (10 μM) stimulated cAMP; read-out: hFPR1 cAMP EC50
human FPR1, sequence (P21462 whole entry): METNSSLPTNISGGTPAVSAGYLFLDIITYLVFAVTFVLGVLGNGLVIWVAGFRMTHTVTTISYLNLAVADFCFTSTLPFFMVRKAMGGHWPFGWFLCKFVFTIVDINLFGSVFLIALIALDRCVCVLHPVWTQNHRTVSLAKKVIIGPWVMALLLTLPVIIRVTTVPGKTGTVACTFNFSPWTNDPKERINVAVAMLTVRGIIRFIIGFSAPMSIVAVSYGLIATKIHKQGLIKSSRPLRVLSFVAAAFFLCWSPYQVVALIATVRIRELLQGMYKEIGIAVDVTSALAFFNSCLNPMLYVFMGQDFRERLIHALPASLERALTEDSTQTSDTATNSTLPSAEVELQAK
Procedure: FPR2 and FPR1 Cyclic Adenosine Monophosphate (cAMP) Assays. A mixture of forskolin (5 μM final for FPR2 or 10 μM final for FPR1) and IBMX (200 μM final) were added to 384-well Proxiplates (Perkin-Elmer) pre-dotted with test compounds in DMSO (1% final) at final concentrations in the range of 0.020 nM to 100 μM. Chinese Hamster Ovary cells (CHO) overexpressing human FPR1 or human FPR2 receptors were cultured in F-12 (Ham's) medium supplemented with 10% qualified FBS, 250 μg/ml zeocin and 300 μg/ml hygromycin (Life Technologies). Reactions were initiated by adding 2,000 human FPR2 cells per well or 4,000 human FPR1 cells per well in Dulbecco's PBS (with calcium and magnesium) (Life Technologies) supplemented with 0.1% BSA (Perkin-Elmer). The reaction mixtures were incubated for 30 min at room temperature. The level of intracellular cAMP was determined using the HTRF HiRange cAMP assay reagent kit (Cisbio) according to manufacturer's instruction. Solutions of cryptate conjugated anti-cAMP and d2 flurorophore-labelled cAMP were made in a supplied lysis buffer separately. Upon completion of the reaction, the cells were lysed with equal volume of the d2-cAMP solution and anti-cAMP solution. After a 1-h room temperature incubation, time-resolved fluorescence intensity was measured using the Envision (Perkin-Elmer) at 400 nm excitation and dual emission at 590 nm and 665 nm. A calibration curve was constructed with an external cAMP standard at concentrations ranging from 1 μM to 0.1 pM by plotting the fluorescent intensity ratio from 665 nm emission to the intensity from the 590 nm emission against cAMP concentrations. The potency and activity of a compound to inhibit cAMP production was then determined by fitting to a 4-parametric logistic equation from a plot of cAMP level versus compound concentrations.

[3] = inhibition of forskolin (5 μM) stimulated cAMP, read-out: hFPR2 cAMP2 EC50
[4] = hFPR2 Assay, read-out: hFPR2 agonist activity EC50

human FPR2, sequence (P25090 whole entry): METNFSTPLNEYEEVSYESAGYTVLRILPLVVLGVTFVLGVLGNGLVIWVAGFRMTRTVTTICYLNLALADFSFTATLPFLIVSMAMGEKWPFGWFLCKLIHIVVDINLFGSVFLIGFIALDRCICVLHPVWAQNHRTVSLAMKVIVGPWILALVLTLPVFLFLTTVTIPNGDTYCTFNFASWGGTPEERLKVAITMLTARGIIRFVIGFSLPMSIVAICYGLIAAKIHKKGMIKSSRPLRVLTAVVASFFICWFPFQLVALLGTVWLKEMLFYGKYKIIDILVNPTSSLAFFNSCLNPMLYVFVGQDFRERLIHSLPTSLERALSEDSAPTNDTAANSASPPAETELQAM

Row | SMILES | EC50 [1, 3] [nM] | EC50 [2] [nM] | EC50 [1, 4] [nM]
1 | COc1ccc(NC(=O)NC2CCCN(c3ccc(-c4ccccc4S(C)(=O)=O)cc3F)C2=O)cc1 (centres unmarked) [Example 17, 1-(1-(3-fluoro-2′-(methylsulfonyl)-[1,1′-biphenyl]-4-yl)-2-oxopiperidin-3-yl)-3-(4-methoxyphenyl)urea] | 10 | 170 | –
2 | Cc1cnc(NC(=O)NC2CCCN(c3ccc(-c4ccccc4S(C)(=O)=O)cc3F)C2=O)s1 (centres unmarked) [Example 26, 1-(1-(3-fluoro-2′-(methylsulfonyl)-[1,1′-biphenyl]-4-yl)-2-oxopiperidin-3-yl)-3-(5-methylthiazol-2-yl)urea] | 380 | 210 | –
3 | CS(=O)(=O)c1ccccc1-c1ccc(N2CCCC(NC(=O)Nc3ccc(Cl)nn3)C2=O)c(F)c1 (centres unmarked) [Example 27, 1-(6-chloropyridazin-3-yl)-3-(1-(3-fluoro-2′-(methylsulfonyl)-[1,1′-biphenyl]-4-yl)-2-oxopiperidin-3-yl)urea] | 400 | 950 | –
4 | CS(=O)(=O)c1ccccc1-c1ccc(N2CCCC(NC(=O)Nc3ccc(F)cc3)C2=O)c(F)c1 (centres unmarked) [Example 28, 1-(1-(3-fluoro-2′-(methylsulfonyl)-[1,1′-biphenyl]-4-yl)-2-oxopiperidin-3-yl)-3-(4-fluorophenyl)urea] | 560 | 1200 | –
5 | CS(=O)(=O)Nc1ccccc1-c1ccc(N2CCC[C@@H](NC(=O)Nc3ccc(C(F)(F)F)cc3)C2=O)cc1 [Example 66] | 0.32 | 100 | –
6 | NC(=O)c1ccccc1-c1ccc(N2CCC[C@@H](NC(=O)Nc3ccc(Cl)cc3)C2=O)c(F)c1 [Example 78] | 0.89 | 42 | –
7 | O=C(Nc1ccc(C(F)(F)F)cc1)N[C@@H]1CCCN(c2ccc(-c3cccc(F)c3F)cc2)C1=O [Example 125] | 9 | 330 | –
8 | NC(=O)c1ccccc1-c1ccc(N2CCC[C@@H](NC(=O)Nc3ccc(C(F)(F)F)cc3)C2=O)cc1 [Example 139] | 10 | 150 | –
9 | O=C(Nc1ccc(C(F)(F)F)cc1)N[C@@H]1CCCN(c2ccc(-c3cncc(N4CCOCC4)c3)cc2)C1=O [Example 166] | 8 | 330 | –
10 | Cc1ccc(NC(=O)N[C@@H]2CCCN(c3ccc(-c4ccccc4C(N)=O)cc3)C2=O)c(C)c1 [Example 175] | 520 | 2600 | –
11 | COc1ccc(NC(=O)N[C@@H]2CCCN(c3ccc(-c4ccccc4C(N)=O)cc3)C2=O)cc1Cl [Example 176] | 780 | 1200 | –
12 | CC(C)(C)NS(=O)(=O)c1ccccc1-c1ccc(N2CCC[C@@H](NC(=O)Nc3ccc(Cl)cc3)C2=O)cc1 [Example 183] | 0.46 | 0.56 | –
13 | CS(=O)(=O)Nc1ccccc1-c1ccc(N2CCC[C@@H](NC(=O)Nc3ccc(C(F)(F)F)cn3)C2=O)cc1 [Example 184] | 8.1 | 1500 | –
14 | O=C(Nc1ccc(Cl)cn1)N[C@@H]1C[C@@H](O)CN(c2ccc(-c3ccccc3F)cc2)C1=O [Example 269, 1-(5-Chloropyridin-2-yl)-3-((3R,5R)-1-(2′-fluoro-[1,1′-biphenyl]-4-yl)-5-hydroxy-2-oxopiperidin-3-yl)urea] | – | – | 5 to 40
15 | CC(N)c1cccc(-c2ccc(N3CCC[C@@H](NC(=O)Nc4ccc(Cl)cc4F)C3=O)c(F)c2F)c1 (stereo partly drawn) [Example 274, 1-((3R)-1-(3′-(1-Aminoethyl)-2,3-difluoro-[1,1′-biphenyl]-4-yl)-2-oxopiperidin-3-yl)-3-(4-chloro-2-fluorophenyl)urea] | – | – | ≤ 5
16 | N#Cc1ccccc1-c1ccc(N2CCC[C@@H](NC(=O)Nc3cnc(Cl)cn3)C2=O)c(F)c1F [Example 275, (R)-1-(5-Chloropyrazin-2-yl)-3-(1-(2′-cyano-2,3-difluoro-[1,1′-biphenyl]-4-yl)-2-oxopiperidin-3-yl)urea] | – | – | ≤ 5
17 | CS(=O)(=O)Nc1cccc(-c2ccc(N3CCC[C@@H](NC(=O)Nc4ccc(Cl)cc4)C3=O)cc2)c1F [Example 278, (R)-N-(4′-(3-(3-(4-Chlorophenyl)ureido)-2-oxopiperidin-1-yl)-2-fluoro-[1,1′-biphenyl]-3-yl)methanesulfonainide] | – | – | ≤ 5
18 | CS(=O)(=O)Nc1c(F)cccc1-c1ccc(N2CCC[C@@H](NC(=O)Nc3ccc(Cl)cc3)C2=O)cc1 [Example 279, (R)-N-(4′-(3-(3-(4-Chlorophenyl)ureido)-2-oxopiperidin-1-yl)-3-fluoro-[1,1′-biphenyl]-2-yl]methanesulfonamide] | – | – | ≤ 5
19 | CC(N)c1cccc(-c2ccc(N3CCC[C@@H](NC(=O)Nc4ccc(C(F)(F)F)cn4)C3=O)c(F)c2F)c1 (stereo partly drawn) [Example 280, 1-((3R)-1-(3′-(1-Aminoethyl)-2,3-difluoro-[1,1′-biphenyl]-4-yl)-2-oxopiperidin-3-yl)-3-(5-(trifluoromethyl)pyridin-2-yl)urea] | – | – | 5 to 40
20 | CS(=O)(=O)Nc1ccccc1-c1ccc(N2CCC[C@@H](NC(=O)Nc3ccc(Cl)cc3)C2=O)cc1OC(F)(F)F [Example 300] | – | – | 5 to 40

Next, values leading:

Row | EC50 [1, 3] [nM] | EC50 [2] [nM] | EC50 [1, 4] [nM] | SMILES
21 | 8.4 | 200 | – | Cc1ccc(NC(=O)NC2CCCN(c3ccc(-c4cccnc4)cc3)C2=O)cc1 (centres unmarked) [Example 15]
22 | 9.3 | 390 | – | O=C(Nc1ccc(Cl)cc1)NC1CCCN(c2ccc(-c3cccnc3)cc2)C1=O (centres unmarked) [Example 16, 1-(4-chlorophenyl)-3-(2-oxo-1-(4-(pyridin-3-yl)phenyl)piperidin-3-yl)urea]
23 | 9.7 | 280 | – | O=C(Nc1ccc(C(F)(F)F)cc1)NC1CCCN(c2ccc(-c3ccccc3)cc2)C1=O (centres unmarked) [Example 36, 1-(1-([1,1′-biphenyl]-4-yl)-2-oxopiperidin-3-yl)-3-(4-(trifluoromethyl)phenyl)urea]
24 | 330 | 1600 | – | Cc1ccncc1-c1ccc(N2CCCC(NC(=O)Nc3ccc(C(F)(F)F)cc3)C2=O)cc1 (centres unmarked) [Example 47, 1-(1-(4-(4-methylpyridin-3-yl)phenyl)-2-oxopiperidin-3-yl)-3-(4-(trifluoromethyl)phenyl)urea]
25 | 560 | 930 | – | NC(=O)c1ccc(-c2ccc(N3CCCC(NC(=O)Nc4ccc(C(F)(F)F)cc4)C3=O)cc2)cc1 (centres unmarked) [Example 48, 4′-(2-oxo-3-(3-(4-(trifluoromethyl)phenyl)ureido)piperidin-1-yl)-[1,1′-biphenyl]-4-carboxamide]
26 | 850 | 2100 | – | CS(=O)(=O)c1ccc(-c2ccc(N3CCCC(NC(=O)Nc4ccc(C(F)(F)F)cc4)C3=O)cc2)cc1 (centres unmarked) [Example 49, 1-(1-(4′-(methylsulfonyl)-[1,1′-biphenyl]-4-yl)-2-oxopiperidin-3-yl)-3-(4-(trifluoromethyl)phenyl)urea]
27 | 9.2 | 280 | – | O=C(Nc1ccc(C(F)(F)F)cc1)N[C@H]1CCCN(c2ccc(-c3ccccc3CO)cc2)C1=O [Example 58]
28 | 0.81 | 10 | – | N#Cc1ccccc1-c1ccc(N2CCC[C@@H](NC(=O)Nc3ccc(Cl)cc3)C2=O)cc1 [Example 76]
29 | 0.68 | 8.8 | – | O=C(Nc1ccc(Cl)cc1)N[C@@H]1CCCN(c2ccc(-c3ccccc3CO)cc2)C1=O [Example 77]
30 | 0.14 | 32 | – | CS(=O)(=O)Nc1ccccc1-c1ccc(N2CCC[C@@H](NC(=O)Nc3ccc(Cl)cc3)C2=O)cc1 [Example 86]
31 | 9.4 | 170 | – | CCOc1ncccc1-c1ccc(N2CCC[C@@H](NC(=O)Nc3ccc(C(F)(F)F)cc3)C2=O)cc1 [Example 129]
32 | 0.36 | 15 | – | CN(c1ncccc1-c1ccc(N2CCC[C@@H](NC(=O)Nc3ccc(C(F)(F)F)cc3)C2=O)cc1)S(C)(=O)=O [Example 145]
33 | 450 | 900 | – | NC(=O)c1ccccc1-c1ccc(N2CCC[C@@H](NC(=O)Nc3ccc(F)cc3)C2=O)cc1 [Example 174]
